Data: US10093623B2, “Cyclic amides as MetAP-2 inhibitors” (MERCK PATENT GmbH, priority 2012, dated 2018)
pIC50: −log10 of the molar value.

The molecules below were run against MetAP-2 (Homo sapiens, UniProt P50579) (assay: MetAP-2 activity measurement (coupled enzymatic reactions, Met-Arg-Ser substrate, dianisidine detection at 450 nm)). Settings: Inhibition of MetAP-2; read-out: IC50 enzyme.
Sequence of MetAP-2 (P50579 whole entry, species assumed): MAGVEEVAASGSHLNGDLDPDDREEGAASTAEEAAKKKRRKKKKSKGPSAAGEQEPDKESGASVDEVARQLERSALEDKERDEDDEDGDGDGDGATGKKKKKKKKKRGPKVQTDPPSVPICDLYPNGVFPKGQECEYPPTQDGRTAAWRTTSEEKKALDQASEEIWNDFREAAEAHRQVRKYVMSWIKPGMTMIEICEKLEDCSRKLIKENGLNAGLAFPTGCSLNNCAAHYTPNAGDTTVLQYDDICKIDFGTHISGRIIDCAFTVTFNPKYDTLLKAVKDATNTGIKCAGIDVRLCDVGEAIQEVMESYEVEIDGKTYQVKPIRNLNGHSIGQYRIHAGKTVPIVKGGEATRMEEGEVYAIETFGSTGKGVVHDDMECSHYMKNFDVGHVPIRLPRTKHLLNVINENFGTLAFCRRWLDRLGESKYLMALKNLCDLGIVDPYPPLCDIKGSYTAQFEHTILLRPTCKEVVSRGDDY
Assay type: biochemical
Description: MetAP-2 Activity Measurement
The MetAP-2 activity is determined by coupling enzymatic reactions. The tripeptide Met-Arg-Ser (MAS) is employed as substrate. The methionine liberated is firstly converted into Metox and H2O2 by L-aminooxidase (AAO). In the second step, the peroxidase (POD) with the aid of the H2O2 catalyses the oxidation of the leukodye dianisidine to dianisidineox, the increase of which is detected photometrically at 450 nm.
MetAP-2 activity can be recorded continuously as kinetics. The reaction scheme illustrates that one mol of dianisidineox is formed per mol of methionene. The MetAP-2 enzyme activity can therefore be calculated directly as A absorption per time unit. Qualification of the MetAP-2 activity (mol of Met/time unit) is possible with the aid of the dianisidineox extinction coefficient.
The change in extinction per time unit is depicted graphically and a slope calculation is carried out in the visually linear region of the reaction.
O=C(NCCCO)c1cccc(N2CC[C@](O)(C(=O)NCc3cc(F)cc(Cl)c3)C2=O)c1 [A94, N-(3-Chloro-5-fluorobenzyl)-(S)-3-hydroxy-1-[3-(3-hydroxy-propylcarbamoyl)phenyl]-2-oxo-pyrrolidine-3-carboxamide] was tested, and the pIC50 was 6.00 to 8.00.
In the case of O=C(c1cccc(N2CC[C@](O)(C(=O)NCc3cc(F)cc(Cl)c3)C2=O)c1)N1CCCCC1 [A95, N-(3-Chloro-5-fluorobenzyl)-(S)-3-hydroxy-2-oxo-1-[3-(piperidin-1-carbonyl)phenyl]pyrrolidine-3-carboxamide], the pIC50 was 6.00 to 8.00.
O=C1NCCc2cc(N3CC[C@](O)(C(=O)NCc4cc(F)cc(Cl)c4)C3=O)ccc21 [A96, N-(3-Chloro-5-fluorobenzyl)-(S)-3-hydroxy-2-oxo-1-(1-oxo-1,2,3,4-tetrahydroisoquinolin-6-yl)pyrrolidine-3-carboxamide] showed a pIC50 of 6.00 to 8.00.
In the case of N#Cc1ccc(N2CC[C@](O)(C(=O)NCc3cc(F)cc(Cl)c3)C2=O)cn1 [A97, N-(3-Chloro-5-fluorobenzyl)-(S)-1-(6-cyanopyridin-3-yl)-3-hydroxy-2-oxopyrrolidine-3-carboxamide], the pIC50 was 6.00 to 8.00.
In the case of N#Cc1cncc(N2CC[C@@](O)(C(=O)NCc3cc(F)cc(Cl)c3)C2=O)c1 [A98, N-(3-Chloro-5-fluorobenzyl)-(R)-1-(5-cyanopyridin-3-yl)-3-hydroxy-2-oxopyrrolidine-3-carboxamide], the pIC50 was less than 5.00.
Work on O=C(NCc1cc(F)cc(Cl)c1)[C@@]1(O)CCN(c2ccc(C(F)(F)F)nc2)C1=O [A99, N-(3-Chloro-5-fluorobenzyl)-(S)-3-hydroxy-2-oxo-1-(6-trifluoromethylpyridin-3-yl)-pyrrolidine-3-carboxamide] yielded a pIC50 of 6.00 to 8.00.
COC(=O)c1cc(N2CCC(O)(C(=O)NCc3cc(F)cc(Cl)c3)C2=O)cnc1C (stereo not drawn) [A100, Methyl 5-[3-(3-chloro-5-fluorobenzylcarbamoyl)-3-hydroxy-2-oxopyrrolidin-1-yl]-2-methylnicotinate] was tested, and the pIC50 was 6.00 to 8.00.
Molecule CC1(C)CN(c2ccccc2)C(=O)[C@@]1(O)C(=O)NCc1cc(F)cc(Cl)c1 [A101, N-(3-Chloro-5-fluorobenzyl)-(S)-3-hydroxy-4,4-dimethyl-2-oxo-1-phenylpyrrolidine-3-carboxamide] has a pIC50 of less than 5.00.
For CN(CCO)C(=O)c1cccc(N2CC[C@@](O)(C(=O)NCc3cc(F)cc(Cl)c3)C2=O)c1 [A102, N-(3-Chloro-5-fluorobenzyl)-(R)-3-hydroxy-1-{3-[(2-hydroxy-ethyl)methylcarbamoyl]phenyl}-2-oxopyrrolidine-3-carboxamide], the pIC50 was 5.00 to 6.00.
O=C(NCCCO)c1cccc(N2CC[C@@](O)(C(=O)NCc3cc(F)cc(Cl)c3)C2=O)c1 [A103, N-(3-Chloro-5-fluorobenzyl)-(R)-3-hydroxy-1-[3-(3-hydroxy-propylcarbamoyl)phenyl]-2-oxo-pyrrolidine-3-carboxamide] showed a pIC50 of 5.00 to 6.00.
Work on O=C(c1cccc(N2CC[C@@](O)(C(=O)NCc3cc(F)cc(Cl)c3)C2=O)c1)N1CCCCC1 [A104, N-(3-Chloro-5-fluorobenzyl)-(R)-3-hydroxy-2-oxo-1-[3-(piperidin-1-carbonyl)phenyl]pyrrolidine-3-carboxamide] yielded a pIC50 of less than 5.00.
O=C1NCCc2cc(N3CC[C@@](O)(C(=O)NCc4cc(F)cc(Cl)c4)C3=O)ccc21 [A105, N-(3-Chloro-5-fluorobenzyl)-(R)-3-hydroxy-2-oxo-1-(1-oxo-1,2,3,4-tetrahydroisoquinolin-6-yl)pyrrolidine-3-carboxamide] gave a pIC50 of less than 5.00.
Molecule N#Cc1ccc(N2CC[C@@](O)(C(=O)NCc3cc(F)cc(Cl)c3)C2=O)cn1 [A106, N-(3-Chloro-5-fluorobenzyl)-(R)-1-(6-cyanopyridin-3-yl)-3-hydroxy-2-oxopyrrolidine-3-carboxamide] has a pIC50 of less than 5.00.
N#Cc1cncc(N2CC[C@](O)(C(=O)NCc3cc(F)cc(Cl)c3)C2=O)c1 [A107, N-(3-Chloro-5-fluorobenzyl)-(S)-1-(5-cyanopyridin-3-yl)-3-hydroxy-2-oxopyrrolidine-3-carboxamide] gave a pIC50 of 5.00 to 6.00.
O=C(NCc1cc(F)cc(Cl)c1)[C@]1(O)CCN(c2ccc(C(F)(F)F)nc2)C1=O [A108, N-(3-Chloro-5-fluorobenzyl)-(R)-3-hydroxy-2-oxo-1-(6-trifluoromethylpyridin-3-yl)-pyrrolidine-3-carboxamide] was tested, and the pIC50 was less than 5.00.
For CC1(C)CN(c2ccccc2)C(=O)[C@]1(O)C(=O)NCc1cc(F)cc(Cl)c1 [A109, N-(3-Chloro-5-fluorobenzyl)-(R)-3-hydroxy-4,4-dimethyl-2-oxo-1-phenylpyrrolidine-3-carboxamide], the pIC50 was less than 5.00.
C=C(Cc1ccccc1)C(=O)[C@@]1(O)CCN(c2ccccc2)C1=O [A110, (S)-3-(2-Benzylacryloyl)-3-hydroxy-1-phenylpyrrolidin-2-one] showed a pIC50 of less than 5.00.
Work on C=C(Cc1ccccc1)C(=O)[C@]1(O)CCN(c2ccccc2)C1=O [A111, (R)-3-(2-Benzylacryloyl)-3-hydroxy-1-phenylpyrrolidin-2-one] yielded a pIC50 of less than 5.00.
Work on O=C(NCc1cc(F)cc(Cl)c1)C1(O)CCN(c2ccc3c(c2)c(C(F)(F)F)cn3CO)C1=O (stereo not drawn) [A112, N-(3-Chloro-5-fluorobenzyl)-3-hydroxy-1-(1-hydroxymethyl-3-trifluoromethyl-1H-indol-5-yl)-2-oxopyrrolidine-3-carboxamide] yielded a pIC50 of 6.00 to 8.00.
Work on O=C(NCc1cc(F)cc(Cl)c1)C1(O)C(=O)N(c2ccccc2)CC12COC2 (stereo not drawn) [A113, N-(3-Chloro-5-fluorobenzyl)-8-hydroxy-7-oxo-6-phenyl-2-oxa-6-azaspiro[3.4]octane-8-carboxamide] yielded a pIC50 of less than 5.00.
O=C1NCCc2ccc(N3CCC(O)(C(=O)NCc4cc(F)cc(Cl)c4)C3=O)cc21 (stereo not drawn) [A115, N-(3-Chloro-5-fluorobenzyl)-3-hydroxy-2-oxo-1-(1-oxo-1,2,3,4-tetrahydroisoquinolin-7-yl)-pyrrolidine-3-carboxamide] showed a pIC50 of 6.00 to 8.00.
CNc1ccc(N2CCC(O)(C(=O)NCc3cc(F)cc(Cl)c3)C2=O)cn1 (stereo not drawn) [A116, N-(3-Chloro-5-fluorobenzyl)-3-hydroxy-1-(6-methylamino-pyridin-3-yl)-2-oxopyrrolidine-3-carboxamide] showed a pIC50 of 6.00 to 8.00.
For Cc1cncc(N2CCC(O)(C(=O)NCc3cc(F)cc(Cl)c3)C2=O)c1 (stereo not drawn) [A117, N-(3-Chloro-5-fluorobenzyl)-3-hydroxy-1-(5-methylpyridin-3-yl)-2-oxopyrrolidine-3-carboxamide], the pIC50 was 6.00 to 8.00.
Molecule O=C(NCc1cc(F)cc(Cl)c1)C1(O)CCN(c2cnc3c(c2)OCCN3)C1=O (stereo not drawn) [A118, N-(3-Chloro-5-fluorobenzyl)-1-(3,4-Dihydro-2H-pyrido[3,2-b]-1,4-oxazin-7-yl)-3-hydroxy-2-oxopyrrolidine-3-carboxamide] has a pIC50 of 6.00 to 8.00.
For CC1CC(O)(C(=O)NCc2cc(F)cc(Cl)c2)C(=O)N1c1ccccc1 (stereo not drawn) [A119, N-(3-chloro-5-fluorobenzyl)-3-hydroxy-5-methyl-2-oxo-1-phenylpyrrolidine-3-carboxamide], the pIC50 was 5.00 to 6.00.
With OC1(CNCc2cc(F)cc(Cl)c2)CCN(c2ccccc2)C1 (stereo not drawn) [A120, 3-[(3-chloro-5-fluorobenzylamino)methyl]-1-phenylpyrrolidin-3-ol] the pIC50 was less than 5.00.
O=C(NCc1cc(F)cc(Cl)c1)C1(O)CCN(Cc2ccccc2)C1 (stereo not drawn) [A121, N-(3-chloro-5-fluorobenzyl)-1-benzyl-3-hydroxypyrrolidine-3-carboxamide] showed a pIC50 of 5.00 to 6.00.
